In patent US8304438B2, “Heteroarylacrylamides and their use as pharmaceuticals” (Sanofi, priority 2006, dated 2012):
Structures can show the parent of a compound that is named as a salt.

test system: eNOS promoter; test: Activation of eNOS transcription (eNOS promoter firefly luciferase reporter gene assay); format: cell-based; details: human endothelial cell line stable transfected with eNOS promoter-luciferase construct; 18 h incubation; EC50 determined graphically; read-out: EC50 values of transcription induction ratios (TIR)
Method: Activation of eNOS transcription was measured as described in detail by L^1 et al., “Activation of protein kinase C alpha and/or epsilon enhances transcription of the human endothelial nitric oxide synthase gene”, Mol. Pharmacol. 53 (1998) 630. Briefly, a 3.5 kB long fragment 5′ of the starting codon of the eNOS gene was cloned, sequenced and cloned in firefly luciferase expression plasmids to monitor activation of the eNOS promoter by reporter gene activity. A human endothelial cell line stable transfected and expressing this promoter-reporter construct was used for compound testing. Cells were incubated for 18 h with the compounds.
All compounds were dissolved in sterile dimethyl sulfoxide (DMSO). A final concentration of 0.5% DMSO in complete medium was allowed. Induction of reporter gene expression in these cells was measured using a standard luciferase assay system (Promega, Cat. No. E150) according to the manufacturer's instructions. Luciferase induction in cells incubated with compounds were compared to those incubated with solvent alone. The ratio of both activities (transcription induction ratio, TIR) was plotted as a function of compound concentration. Typically, TIR values started at low concentrations at a ratio of 1, indicating no compound effect, and extended up to a maximum TIR value TIR(max) which indicates the increase of the eNOS transcription. EC50 values of transcription induction ratios as a function of compound concentration were determined graphically.

Compound	EC50 [nM]
CC(C)(C)NC(=O)/C=C/c1nc(-c2ccc(F)cc2)cs1 [Example 146, N-tert-Butyl-3-[4-(4-fluoro-phenyl)-thiazol-2-yl]-acrylamide]	< 500
O=C(/C=C/c1nc(-c2ccc(F)cc2)cs1)Nc1ccccn1 [Example 116, 3-[4-(4-Fluoro-phenyl)-thiazol-2-yl]-N-(pyridin-2-yl)-acrylamide]	500 to 5000
O=C(/C=C/c1ccc(-c2ccccc2OC(F)(F)F)o1)N1CCCCC1 [Example 13, 1-(Piperidin-1-yl)-3-[5-(2-trifluoromethoxy-phenyl)-furan-2-yl]-propenone]	500 to 5000
C/C(=C\C(=O)N(C)C)c1ccc(-c2ccccc2F)nc1 [Example 110, 3-[6-(2-Fluoro-phenyl)-pyridin-3-yl]-but-2-enoic Acid Dimethylamide Trifluoroacetic Acid Salt]	< 500
O=C(/C=C/c1ccc(-c2cc3ccccc3s2)nc1)N1CCCCC1 [Example 125, 3-(6-(Benzo[b]thiophen-2-yl)-pyridin-3-yl)-1-(piperidin-1-yl)-propenone]	500 to 5000
CC(C)N(C(=O)/C=C/c1nc(-c2ccc(F)cc2)cs1)C(C)C [Example 145, 3-[4-(4-Fluoro-phenyl)-thiazol-2-yl]-N,N-diisopropyl-acrylamide]	< 500
O=C(/C=C/c1cc(-c2ccccc2F)cs1)N1CCCCC1 [Example 15, 3-[4-(2-Fluoro-phenyl)-thiophen-2-yl]-1-(piperidin-1-yl)-propenone]	< 500
O=C(/C=C/c1ccc(Oc2ccc(F)cc2)nc1)N1CCCCC1 [Example 76, 3-[6-(4-Fluoro-phenoxy)-pyridin-3-yl]-1-(piperidin-1-yl)-propenone Trifluoroacetic Acid Salt]	500 to 5000
O=C(/C=C/c1cnc2ccccc2c1)N1CCCCC1 [Example 1, 1-(Piperidin-1-yl)-3-(quinolin-3-yl)-propenone]	500 to 5000
C/C(=C\C(=O)N1CCCCC1)c1cc(-c2ccccc2F)cs1 [Example 123, 3-[4-(2-Fluoro-phenyl)-thiophen-2-yl]-1-(piperidin-1-yl)-but-2-en-1-one]	500 to 5000
O=C(/C=C/c1ccc(-c2ccccc2F)s1)Nc1ccccc1 [Example 150, 3-[5-(2-Fluoro-phenyl)-thiophen-2-yl]-N-phenyl-acrylamide]	500 to 5000
